Measurements published in patent US20130261066A1, “TREATMENT OF INFLAMMATORY BOWEL DISEASES USING A TRIPEPTIDE” (THE RESEARCH FOUNDATION OF STATE UNIVERSITY OF NEW YORK, priority 2010, published 2013).
Entries after “also recorded” stand apart in the source; their conditions may differ.

How the values were obtained:
Type in all cases: in vivo
[1] = test system: cytosolic phospholipase A2 (cPLA2); experiment: cPLA2 activity in colon tissue of DSS-treated mice
From the text: cPLA2 enzymes release fatty acids from the second carbon group of glycerol. This particular phospholipase specifically recognizes the sn-2 acyl bond of phospholipids and catalytically hydrolyzes the bond releasing a lysopospholipid and arachidonic acid; the latter is then modified by cyclooxygenases into active compounds called eicosanoids by cyclooxygenases. Eicosanoids include prostaglandins and leukotrienes which are categorized as inflammatory mediators. […] Treatment with MC12 decreased cPLA2 activity by 18% at 40 μg and 26% at the dose of 80 μg (p<0.05).
We also determined the activity of cytosolic phospholipase A2 (cPLA2) in colonic tissues from study mice. cPLA2s are enzymes that release fatty acids from the second carbon group of glycerol. This particular […] specifically recognizes the sn-2 acyl bond of phospholipids and catalytically hydrolyzes the bond releasing arachidonic acid and lysophospholipids, which are then modified into active compounds called eicosanoids by cyclooxygenases. Eicosanoids include prostaglandins and leukotrienes which are categorized as inflammatory mediators.
A cPLA2 assay kit (Cayman, Ann Arbor, Mich.) was used to determine cPLA2 activity following the instructions of the manufacturer. Briefly, a portion of colon tissue was homogenized in cold PBS and centrifuged at 10,000×g for 15 minutes and 10 μl of supernatant from each sample and 5 μl assay buffer were added into a 96-well microplate. The reaction was initialized by adding 200 μl substrate solutions to all wells and incubating for 5 min at room temperature. The fluorescence intensity was measured using a Multiplate Reader (Molecular Devices) at excitation at 485 nm, emission at 530 nm.

DSS-induced colitis [2] = experiment: DSS-induced colitis in mice, MC-12 5 or 25 mg/kg ip or po (Example 4); settings: for reduction of histological score compared to DSS control: p<0.01
DSS-induced colitis [3] = experiment: as above; settings: for reduction of histological score compared to DSS control: p<0.01; remark: listed apart in the source
Protocol: Female C57BL/6 and SJL/J mice (Taconic, Hudson, N.Y.), 7-9 weeks old, were kept under controlled temperature (25° C.) with a 12/12-hour light-dark cycle and free access to standard diet and drinking water. The mice were allowed to acclimate for 7 days before the start of experiments.
The mice received 2% dextran sulfate sodium (DSS, MW 36,000 to 50,000, MP Biomedicals, Solon, Ohio) in drinking water for 8 days; control mice received regular drinking water. During the period when DSS was administered, treated mice were given MC-12 at 5 or 25 mg/kg intraperitoneally (ip) whereas the control group was given saline ip. As above, the mice were weighed and monitored for rectal bleeding or prolapse daily. All mice were euthanized at the end of the study period. Blood samples were collected and colons were dissected and their length was measured. The middle part of colon was fixed in 4% neutralized formalin and the rest was frozen for molecular analyses. Paraffin-embedded tissue sections were stained and scored as above.
(§1) The fixed colon was cut into six equal fragments, dehydrated and embedded into paraffin. The tissue sections were stained with hematoxylin and eosin (H&E). The histological score was determined by two pathologists as described, based on the degree (0-3) and extent (0-3) of inflammation, crypt damage (0-4) and the area involved (0-4). The scores of each of the first three parameters were multiplied by the fourth and the sum of these three multiples was the final score (ranging from 0 to 40).

TNBS-induced colitis = TNBS-induced colitis (experimental Crohn's disease) in SJL/J mice
Protocol: TNBS (2,4,6-trinitro benzene sulfonic acid) induces a form of colitis in SJL/J mice that recapitulates Crohn's disease. The optimal dose of TNBS was determined to be 100 μl of a 2.5% ethanolic solution instilled intracolonically. SJL mice received 2.5% TNBS solution in 50% ethanol by intra-colonic instillation using a 3.5 F catheter, which was inserted 4 cm into the colon under mild ketamine/xylazine anesthesia. Mice received MC-12 25 mg/kg or vehicle ip twice a day for two days. Body weight was monitored daily and mice were euthanized on the third day when blood and colon tissues were collected as described above for further analysis.
as §1

NF-κB = experiment: Phospho-NF-κB p65 immunohistochemistry of colonic mucosa, DSS mice; settings: for NF-κB activation / nuclear translocation in colonic mucosa: MC-12 5 and 25 mg/kg, ip and po
From the text: NF-κB is the master regulator of inflammation, controlling the transcription of many genes related to this complex process. It is also the molecular target of the activity of MC 12. Therefore, we determined by immunohistochemistry the level of NF-κB activation in the colonic mucosa of our four study groups of mice. There was minimum or […] activation of NF-κB in the colon of control animals (FIG. 4A). DSS, as expected, activated NF-κB in both colonic crypts and stromal cells (FIG. 4B).
The level of NF-κB activation in the colonic mucosa was determined by immunohistochemistry (FIG. 9). NF-κB is the molecular target of MC-12. Immunohistochemical staining for phospho-NF-κB (activate form of NF-κB) was performed on the colon tissue samples. Briefly, paraffin-embedded sections (4 μm thick) were deparaffinized, rehydrated, and microwave heated for 15 minutes in 0.01 mol/L citric acid buffer (pH 6.0) for antigen retrieval. Then, 3% hydrogen peroxide was applied to block endogenous peroxidase activity. After 30 minutes of blocking with normal serum (Invitrogen, Carlsbad, Calif.), the primary rabbit anti-phospho-NF-κB p65 antibody (Cell Signaling) or corresponding control isotype IgG were applied and incubated overnight at 4° C. Slides were washed thrice with PBS, each for 5 minutes. The biotinylated secondary antibody and the streptavidin-biotin complex were applied, each for 60 minutes incubation and following a thrice-wash at room temperature. After rinsing with PBS, the slides were immersed for 10 minutes in 3,3′-diaminobenzidine (Sigma, St. Louis, Mo.) solution (0.4 mg/mL, with 0.003% hydrogen peroxide), monitored under microscope. The reactions were stopped with distilled water. The slides were counterstained with hematoxylin, dehydrated, and coverslipped. Five photos per section were taken and the positive luminosity was evaluated using PhotoShop program.

Gln-Ala-Trp (QAW) [MC12]
decrease of cPLA2 activity ([1]; MC12 40 μg): 18%
decrease of cPLA2 activity ([1]; MC12 80 μg, p<0.05): 26%
decrease of cPLA2 activity ([1]; MC-12 5 mg/kg): 18%
decrease of cPLA2 activity ([1]; MC-12 25 mg/kg, p<0.05): 24%
reduction of histological score compared to DSS control (DSS-induced colitis [2]; 5 mg/kg po): 50.2%
DSS-induced colonic inflammation (H&E histology) (DSS-induced colitis [2]; 25 mg/kg orally): also decreased DSS-induced colonic inflammation
reduction of histological score compared to DSS control (DSS-induced colitis [2]; 25 mg/kg po): 48.4%
increase in weight compared to baseline (DSS-induced colitis [2]; highest ip dose 500 μg/day, day 8): 7.7%
reduction of histological score compared to DSS control (DSS-induced colitis [3]; 5 mg/kg ip): 48.9%
DSS-induced colonic inflammation (H&E histology) (DSS-induced colitis [3]; 25 mg/kg ip): significantly decreased DSS-induced colonic inflammation
reduction of histological score compared to DSS control (DSS-induced colitis [3]; 25 mg/kg ip): 66.8%
weight loss (DSS-induced colitis [3]; 2% DSS 8 days, MC-12 5 or 25 mg/kg): prevented such weight loss in a dose-dependent manner
colon length (DSS-induced reduction) (DSS-induced colitis [3]; 2% DSS 8 days, MC-12 5 or 25 mg/kg, ip and po): prevented this reduction in colon length in a dose-dependent manner
prevention of weight loss, ip compared to po (DSS-induced colitis [3]; 2% DSS 8 days, ip vs po): more effective in preventing weight loss when given ip compared to po
inflammatory cell infiltration and crypt loss (histology) (TNBS-induced colitis; 25 mg/kg bid for 2 d): decreased the inflammatory cell infiltration and crypt loss
TNBS-caused shortening of colon length (TNBS-induced colitis; 25 mg/kg ip bid 2 d): did not prevent this effect
reduction of body weight on day 3 compared to baseline (TNBS-induced colitis; 25 mg/kg ip bid 2 d, TNBS alone 18.2%): 15.3%
histological score (mean±SEM) (TNBS-induced colitis; 25 mg/kg ip bid 2 d, TNBS control 38.3±1.7, scale 0 to 40): 23.3±3.3
reduction of histological score compared to TNBS control (TNBS-induced colitis; 25 mg/kg ip bid 2 d, p<0.01): 39.1%
prevention of weight loss (TNBS-induced colitis; 25 mg/kg ip twice a day for two days): did not prevent weight loss
NF-κB activation in colonic mucosa (NF-κB; MC12 40 and 80 μg ip): less NF-κB nuclear translocation; also recorded: markedly decreased this effect of DSS
NF-κB activation / nuclear translocation in colonic mucosa (NF-κB; listed as MC 12): marked decrease of NF-κB nuclear translocation
NF-κB activation / nuclear translocation in colonic mucosa (NF-κB; listed as MC-12): markedly decreased this effect of DSS in a clear dose-dependent manner
NF-κB activation in colonic mucosa (NF-κB; highest dose 25 mg/kg): essentially normalizing it
